# Data reported in patent publication US12103924B2, “Mitogen-activated protein kinase kinase (MEK) degradation compounds and methods of use” (Icahn School of Medicine at Mount Sinai, priority 2020, dated 2024).
# Test system: HT-29 cells
# Test: MTT cell viability assay, HT-29
# Assay type: cell-based
# Details: Homo sapiens, 72 h, MTT assay, 3 d treatment, serial dilutions
# Protocol: MTT assay was conducted for HT-29 cells after 3 d treatment with indicated compounds with serial dilutions.
# MTT assay was conducted for HT-29 (A) and SK-MEL-28 (B) cells after 3 d treatment with DMSO or indicated compounds with serial dilutions. Clonogenic assay was performed in HT-29 (C) and SK-MEL-28 (D) cells for 14 d treatment with DMSO or indicated compounds with 10, 30 and 100 nM, in duplicate, respectively. Cells were then stained by crystal violet.
# Cells (2000 cells per well) were seeded into 96-well microplates. After 20 h, cells were treated with 0.1% DMSO or indicated serial dilutions of compounds in duplicate or triplicate for 3 days. Cell viability was tested using MTT (M6494, Thermo Fisher Scientific) or WST-8 reagent (CK04, Dojindo). Briefly, 12 mM MTT was prepared in PBS or WST-8 reagent was warmed up to room temperature. 20 μL MTT or CCK-8 was then added to each well and the plates were kept in incubator at 37° C. for 3 h in the dark. For the WST-8 assay, signal was obtained after the incubation. For the MTT assay, cell medium was replaced with 200 μL of DMSO after the incubation, and then cell plates were kept at 37° C. for another 30 min. Absorbance signals for MTT and WST-8 were read at 540 nm and 450 nm respectively, with 690 nm as reference performed with Infinite F PLEX plate reader (TECAN, Morrisville, NC, USA). GI50 values were analyzed using GraphPad Prism 8 from the data of at least three independent experiments.
# HT-29 or SK-MEL-28 cells (300 cells per well) were seeded in 12-well plates. After 20 h, cells were treated with DMSO or indicated concentrations of compounds in duplicate for two weeks. Medium containing indicated compounds was changed every 3 days. Cells were then fixed and stained with the solution containing 6% (v/v) glutaraldehyde (G5882, Sigma-Aldrich) and 0.5% (w/v) crystal violet for 1 h. To remove the background color, the plates with stained cells were immersed in running water until clear colonies were observed. The plates were dried at RT. The staining images were obtained with Epson Perfection V600 Photo.
row,GI50,SMILES
1,0.5 ± 0.2 µM,"Cc1ncsc1-c1ccc(CNC(=O)[C@@H]2C[C@@H](O)CN2C(=O)[C@@H](NC(=O)CCCCCCCNCCCONC(=O)c2ccc(F)c(F)c2Nc2ccc(I)cc2F)C(C)(C)C)cc1 [CPD-011, (2S,4R)-1-((S)-17-(tert-butyl)-1-(3,4-difluoro-2-((2-fluoro-4-iodophenyl)amino)phenyl)-1,15-dioxo-3-oxa-2,7,16-triazaoctadecan-18-oyl)-4-hydroxy-N-(4-(4-methylthiazol-5-yl)benzyl)pyrrolidine-2-carboxamide]"
2,0.5 ± 0.03 µM,"Cc1ncsc1-c1ccc(CNC(=O)[C@@H]2C[C@@H](O)CN2C(=O)[C@@H](NC(=O)CCCCCCCCCNCCCONC(=O)c2ccc(F)c(F)c2Nc2ccc(I)cc2F)C(C)(C)C)cc1 [CPD-013, (2S,4R)-1-((S)-19-(tert-butyl)-1-(3,4-difluoro-2-((2-fluoro-4-iodophenyl)amino)phenyl)-1,17-dioxo-3-oxa-2,7,18-triazaicosan-20-oyl)-4-hydroxy-N-(4-(4-methylthiazol-5-yl)benzyl)pyrrolidine-2-carboxamide]"
3,1.1 ± 0.5 µM,"O=C1CCC(N2C(=O)c3ccc(NCCCCCCNCCCONC(=O)c4ccc(F)c(F)c4Nc4ccc(I)cc4F)cc3C2=O)C(=O)N1 (stereo not drawn) [CPD-044, N-(3-((6-((2-(2,6-dioxopiperidin-3-yl)-1,3-dioxoisoindolin-5-yl)amino)hexyl)amino)propoxy)-3,4-difluoro-2-((2-fluoro-4-iodophenyl)amino)benzamide]"
4,1.7 ± 0.1 µM,"Cc1ncsc1-c1ccc(CNC(=O)[C@@H]2C[C@@H](O)CN2C(=O)[C@@H](NC(=O)CCOCCOCCOCCOCCNCCCONC(=O)c2ccc(F)c(F)c2Nc2ccc(I)cc2F)C(C)(C)C)cc1 [CPD-017, (2S,4R)-1-((S)-24-(tert-butyl)-1-(3,4-difluoro-2-((2-fluoro-4-iodophenyl)amino)phenyl)-1,22-dioxo-3,10,13,16,19-pentaoxa-2,7,23-triazapentacosan-25-oyl)-4-hydroxy-N-(4-(4-methylthiazol-5-yl)benzyl)pyrrolidine-2-carboxamide]"
5,0.6 ± 0.1 µM,"Cc1ncsc1-c1ccc(CNC(=O)[C@@H]2C[C@@H](O)CN2C(=O)[C@@H](NC(=O)CCCCCCCCNCCCONC(=O)c2ccc(F)c(F)c2Nc2ccc(I)cc2F)C(C)(C)C)cc1 [CPD-010, (2S,4R)-1-((S)-18-(tert-butyl)-1-(3,4-difluoro-2-((2-fluoro-4-iodophenyl)amino)phenyl)-1,16-dioxo-3-oxa-2,7,17-triazanonadecan-19-oyl)-4-hydroxy-N-(4-(4-methylthiazol-5-yl)benzyl)pyrrolidine-2-carboxamide]"
6,1.9 ± 0.4 µM,"O=C1CCC(N2C(=O)c3cccc(NCCCCNCCCONC(=O)c4ccc(F)c(F)c4Nc4ccc(I)cc4F)c3C2=O)C(=O)N1 (stereo not drawn) [CPD-026, N-(3-((4-((2-(2,6-dioxopiperidin-3-yl)-1,3-dioxoisoindolin-4-yl)amino)butyl)amino)propoxy)-3,4-difluoro-2-((2-fluoro-4-iodophenyl)amino)benzamide]"
7,3.8 ± 1.7 µM,"O=C1CCC(N2C(=O)c3cccc(NCCCCCCNCCCONC(=O)c4ccc(F)c(F)c4Nc4ccc(I)cc4F)c3C2=O)C(=O)N1 (stereo not drawn) [CPD-028, N-(3-((6-((2-(2,6-dioxopiperidin-3-yl)-1,3-dioxoisoindolin-4-yl)amino)hexyl)amino)propoxy)-3,4-difluoro-2-((2-fluoro-4-iodophenyl)amino)benzamide]"
8,0.055 ± 0.005 µM,"Cc1ncsc1-c1ccc([C@H](C)NC(=O)[C@@H]2C[C@@H](O)CN2C(=O)[C@@H](NC(=O)CCCCCCCCCNCCCCONC(=O)c2ccc(F)c(F)c2Nc2ccc(I)cc2F)C(C)(C)C)cc1 [CPD-035, (2S,4R)-1-((S)-20-(tert-butyl)-1-(3,4-difluoro-2-((2-fluoro-4-iodophenyl)amino)phenyl)-1,18-dioxo-3-oxa-2,8,19-triazahenicosan-21-oyl)-4-hydroxy-N—((S)-1-(4-(4-methylthiazol-5-yl)phenyl)ethyl)pyrrolidine-2-carboxamide]"
9,1.6 ± 0.3 µM,"Cc1ncsc1-c1ccc(CNC(=O)[C@@H]2C[C@@H](O)CN2C(=O)[C@@H](NC(=O)COCCOCCNCCCONC(=O)c2ccc(F)c(F)c2Nc2ccc(I)cc2F)C(C)(C)C)cc1 [CPD-012, (2S,4R)-1-((S)-17-(tert-butyl)-1-(3,4-difluoro-2-((2-fluoro-4-iodophenyl)amino)phenyl)-1,15-dioxo-3,10,13-trioxa-2,7,16-triazaoctadecan-18-oyl)-4-hydroxy-N-(4-(4-methylthiazol-5-yl)benzyl)pyrrolidine-2-carboxamide]"
10,1.4 ± 0.7 µM,"O=C1CCC(N2C(=O)c3ccc(NCCOCCNCCCONC(=O)c4ccc(F)c(F)c4Nc4ccc(I)cc4F)cc3C2=O)C(=O)N1 (stereo not drawn) [CPD-047, N-(3-((2-(2-((2-(2,6-dioxopiperidin-3-yl)-1,3-dioxoisoindolin-5-yl)amino)ethoxy)ethyl)amino)propoxy)-3,4-difluoro-2-((2-fluoro-4-iodophenyl)amino)benzamide]"
11,11 ± 0.9 µM,"Cc1ncsc1-c1ccc(CNC(=O)[C@@H]2C[C@@H](O)CN2C(=O)[C@@H](NC(=O)CCCNCCCONC(=O)c2ccc(F)c(F)c2Nc2ccc(I)cc2F)C(C)(C)C)cc1 [CPD-008, (2S,4R)-1-((S)-13-(tert-Butyl)-1-(3,4-difluoro-2-((2-fluoro-4-iodophenyl)amino)phenyl)-1,11-dioxo-3-oxa-2,7,12-triazatetradecan-14-oyl)-4-hydroxy-N-(4-(4-methylthiazol-5-yl)benzyl)pyrrolidine-2-carboxamide]"
12,2.1 ± 0.1 µM,"Cc1ncsc1-c1ccc(CNC(=O)[C@@H]2C[C@@H](O)CN2C(=O)[C@@H](NC(=O)CCCCCNCCCONC(=O)c2ccc(F)c(F)c2Nc2ccc(I)cc2F)C(C)(C)C)cc1 [CPD-009, (2S,4R)-1-((S)-15-(tert-butyl)-1-(3,4-difluoro-2-((2-fluoro-4-iodophenyl)amino)phenyl)-1,13-dioxo-3-oxa-2,7,14-triazahexadecan-16-oyl)-4-hydroxy-N-(4-(4-methylthiazol-5-yl)benzyl)pyrrolidine-2-carboxamide]"
13,1.5 ± 0.5 µM,"O=C1CCC(N2C(=O)c3ccc(NCCOCCOCCOCCNCCCONC(=O)c4ccc(F)c(F)c4Nc4ccc(I)cc4F)cc3C2=O)C(=O)N1 (stereo not drawn) [CPD-049, N-((1-((2-(2,6-dioxopiperidin-3-yl)-1,3-dioxoisoindolin-5-yl)amino)-3,6,9-trioxa-12-azapentadecan-15-yl)oxy)-3,4-difluoro-2-((2-fluoro-4-iodophenyl)amino)benzamide]"
14,5 ± 1.1 µM,"Cc1ncsc1-c1ccc(CNC(=O)[C@@H]2C[C@@H](O)CN2C(=O)[C@@H](NC(=O)CCNCCCONC(=O)c2ccc(F)c(F)c2Nc2ccc(I)cc2F)C(C)(C)C)cc1 [CPD-006, (2S,4R)-1-((S)-12-(tert-Butyl)-1-(3,4-difluoro-2-((2-fluoro-4-iodophenyl)amino)phenyl)-1,10-dioxo-3-oxa-2,7,11-triazatridecan-13-oyl)-4-hydroxy-N-(4-(4-methylthiazol-5-yl)benzyl)pyrrolidine-2-carboxamide]"
15,0.6 ± 0.09 µM,"O=C1CCC(N2C(=O)c3cccc(NCCOCCOCCOCCOCCNCCCONC(=O)c4ccc(F)c(F)c4Nc4ccc(I)cc4F)c3C2=O)C(=O)N1 (stereo not drawn) [CPD-022, N-((1-((2-(2,6-dioxopiperidin-3-yl)-1,3-dioxoisoindolin-4-yl)amino)-3,6,9,12-tetraoxa-15-azaoctadecan-18-yl)oxy)-3,4-difluoro-2-((2-fluoro-4-iodophenyl)amino)benzamide]"
16,1.6 ± 0.3 µM,"Cc1ncsc1-c1ccc(CNC(=O)[C@@H]2C[C@@H](O)CN2C(=O)[C@@H](NC(=O)CCOCCOCCNCCCONC(=O)c2ccc(F)c(F)c2Nc2ccc(I)cc2F)C(C)(C)C)cc1 [CPD-004, (2S,4R)-1-((S)-18-(tert-Butyl)-1-(3,4-difluoro-2-((2-fluoro-4-iodophenyl)amino)phenyl)-1,16-dioxo-3,10,13-trioxa-2,7,17-triazanonadecan-19-oyl)-4-hydroxy-N-(4-(4-methylthiazol-5-yl)benzyl)pyrrolidine-2-carboxamide]"
17,3.5 ± 0.9 µM,"O=C1CCC(N2C(=O)c3cccc(NCCCCCCCCNCCCONC(=O)c4ccc(F)c(F)c4Nc4ccc(I)cc4F)c3C2=O)C(=O)N1 (stereo not drawn) [CPD-030, N-(3-((8-((2-(2,6-dioxopiperidin-3-yl)-1,3-dioxoisoindolin-4-yl)amino)octyl)amino)propoxy)-3,4-difluoro-2-((2-fluoro-4-iodophenyl)amino)benzamide]"
18,0.043 ± 0.001 µM,"Cc1ncsc1-c1ccc([C@H](C)NC(=O)[C@@H]2C[C@@H](O)CN2C(=O)[C@@H](NC(=O)CCCCCCCCCCNCCCCONC(=O)c2ccc(F)c(F)c2Nc2ccc(I)cc2F)C(C)(C)C)cc1 [CPD-039, (2S,4R)-1-((S)-21-(tert-butyl)-1-(3,4-difluoro-2-((2-fluoro-4-iodophenyl)amino)phenyl)-1,19-dioxo-3-oxa-2,8,20-triazadocosan-22-oyl)-4-hydroxy-N—((S)-1-(4-(4-methylthiazol-5-yl)phenyl)ethyl)pyrrolidine-2-carboxamide]"
19,1.8 ± 0.4 µM,"Cc1ncsc1-c1ccc(CNC(=O)[C@@H]2C[C@@H](O)CN2C(=O)[C@@H](NC(=O)CNCCCONC(=O)c2ccc(F)c(F)c2Nc2ccc(I)cc2F)C(C)(C)C)cc1 [CPD-005, (2S,4R)-1-((S)-11-(tert-Butyl)-1-(3,4-difluoro-2-((2-fluoro-4-iodophenyl)amino)phenyl)-1,9-dioxo-3-oxa-2,7,10-triazadodecan-12-oyl)-4-hydroxy-N-(4-(4-methylthiazol-5-yl)benzyl)pyrrolidine-2-carboxamide]"
20,4.8 ± 0.7 µM,"Cc1ncsc1-c1ccc(CNC(=O)[C@@H]2C[C@@H](O)CN2C(=O)[C@@H](NC(=O)CCOCCNCCCONC(=O)c2ccc(F)c(F)c2Nc2ccc(I)cc2F)C(C)(C)C)cc1 [CPD-003, (2S,4R)-1-((S)-15-(tert-Butyl)-1-(3,4-difluoro-2-((2-fluoro-4-iodophenyl)amino)phenyl)-1,13-dioxo-3,10-dioxa-2,7,14-triazahexadecan-16-oyl)-4-hydroxy-N-(4-(4-methylthiazol-5-yl)benzyl)pyrrolidine-2-carboxamide]"
21,1.1 ± 0.07 µM,"O=C1CCC(N2C(=O)c3cccc(NCCCNCCCONC(=O)c4ccc(F)c(F)c4Nc4ccc(I)cc4F)c3C2=O)C(=O)N1 (stereo not drawn) [CPD-025, N-(3-((3-((2-(2,6-dioxopiperidin-3-yl)-1,3-dioxoisoindolin-4-yl)amino)propyl)amino)propoxy)-3,4-difluoro-2-((2-fluoro-4-iodophenyl)amino)benzamide]"
